Experiments:
Assay type in all cases: in vivo, pigs (Landrace x Yorkshire)
[1] = test system: serum IGF-I; test: Comparative effects of GRF analogs on IGF-I levels in pigs (Example II, D-IGF-I, FIG. 1); conditions: 20 μg/kg 2×/day S.C., days 1 to 5, n=8 pigs per group
Experimental: This was a 5-day treatment, twice a day S.C. administration of one single dose of each test article vs saline. This experiment was conducted to compare the efficacy of (Aminohexanoyl)0 hGRF (1-29) NH2, (Hexylformiate)0 hGRF (1-29) NH2, (Hexenoyl trans-2)0 hGRF (1-29) NH2, (Hexenoyl trans-3)0 hGRF (1-29) NH2 and (Muconoyl)0 hGRF (1-29) NH2 to that of(Hexanoyl)0 hGRF (1-29) NH2.
ADMINISTRATION: Two daily subcutaneous injections.
(§1) TEST SYSTEM: Landrace x Yorkshire pigs.
ANIMAL DESCRIPTION: Fifty six (56) growing barrows pigs weighing 35 kg at the time of purchase.
DESIGN: Fifty six (56) pigs were randomly distributed into 7 experimental groups (n=8 pigs per group). Each group received two daily S.C. administration of the following treatments (volume: 3 ml, S.C. injection).
Treatments were administered from day 1 to 5. Immediately before the injections, one blood sample were collected from each animal, and additional blood samples were collected on day 6.
Blood samples were allowed to clot, serum was harvested by centrifugation and submitted to IGF-I assays.
Results are shown in FIG. 1 as D-IGF-I, which is defined as the increase in IGF-I levels from day 1 (pretreatment levels) to day 6 (after 5 days of GRFs administrations).

[2] = test system: serum IGF-I; test: Repeated S.C. administrations of GRF analogs, serum IGF-I levels in pigs (Example I, Experiments 1-3; radioimmunoassay); conditions: for serum IGF-I, Day 1 (pretreatment): pretreatment baseline; for increase in IGF-I levels: 20 μg/kg BID SC, P<0.05
Experimental: The objective of these experiments was to assess the potential of the GRF analogs as anabolic agents.
Therefore, in order to investigate the anabolic potency of the fatty acid-GRF analogs, their ability to increase IGF-I levels following repeated S.C. administrations in pig was evaluated.
26 Landrace x Yorkshire castrated male pigs (40-45 kg BW) were randomly distributed into 4 experimental groups:
Each animal was injected BID (twice a day) subcutaneously for 4 consecutive days. One blood sample was collected each morning prior to the first injection of the day, and the day after the last injection, for IGF-I measurement.
40 Landrace x Yorkshire castrated male pigs (40-45 kg BW) were randomly distributed into 5 experimental groups:
Each animal was injected BID (twice a day) subcutaneously for 5 consecutive days. One blood sample was collected each morning prior to the first injection of the day, and the day after the last injection, for IGF-I measurement.
48 Landrace x Yorkshire castrated male pigs (40-45 kg BW) were randomly distributed into 6 experimental groups:
The selected doses were 30 μg/kg for hGRF(1-44)NH2 analogs and 20 μg/kg for hGRF(1-29)NH2 analogs, which give identical doses on a molar basis. Each animal was injected BID (twice a day) subcutaneously for 5 consecutive days. One blood sample was collected each morning prior to the first injection of the day, and the day after the last injection, for IGF-I measurements.
IGF-I levels were measured in pig serum by double antibody radioimmunoassay after formic acid-acetone extraction, as previously described (Abribat T. et al., 1993, J. Endocrinol., 39:583-589). The extraction prior to radioimmunoassay is a necessary step to remove endogenous IGF-binding proteins.
In both experiments, the IGF-I data were analyzed by a two way repeated measure analysis of variance, with day and treatment (GRF analog) as sources of variation. Multiple comparison procedures were there run (Student-Newman Keuls method). A P<0.05 was considered as statistically significant.

[3] = test system: pig serum GH; test: Subcutaneous GH-releasing potency in pigs (Example IV); conditions: for effect on GH area under the curve, 0 to 420 minutes following injection: S.C., FIG. 5
Experimental: This experiment was conducted to test the S.C. acute GH-releasing potency of (Hexenoyl trans-3)0 hGRF (1-29) NH2, a GRF analog, in a model physiologically close to human and to compare it to that of hGRF(1-29)NH2.
ADMINISTRATION: Subcutaneous acute injection.
as §1
DESIGN: Thirty six (36) pigs (4 spare animals) were cannulated (a catheter surgically implanted in one jugular vein) within one week, before the study. On days 1 and 7, cannulated animals were randomly distributed into 8 groups (n=4 pigs per group).
Blood samples for pGH assay were collected every 20 min from 1 hour before to 7 hours after GRF injections, (n=25 samples). Blood samples were allowed to clot at +4CC. Serum is harvested by centrifugation, stored at −20° C. and submitted to pGH assays.

[4] = test system: pig serum GH; test: Intravenous GH-releasing potency in pigs (Example III); conditions: for effect on GH area under the curve (0 to 300 minutes following injection): I.V., FIG. 3
Experimental: This experiment was conducted to test the I.V. acute GH-releasing potency of (Hexenoyl trans-3)0 hGRF (1-29) NH2, a GRF analog, in a model physiologically close to human and to compare it to that of hGRF(1-29)NH2.
(Hexenoyl trans-3)0 hGRF (1-29) NH2 is a combination of the natural hGRF(1-29)NH2 and natural fatty acids. This study was a multidose, single I.V. injection study.
ADMINISTRATION: intravenous acute injection.
as §1
DESIGN: […] pigs (4 spare animals) were cannulated (a catheter surgically implanted in one jugular vein) within on week, before the study. On days 1 and 7, cannulated animals were randomly distributed into 7 groups (n=4 pigs per group).
Blood samples for pGH assay were collected every 20 min from 1 hour before to 5 hours after GRF injections, with additional samplings 10 and 30 min after injection (n=21 samples). Blood samples are allowed to clot at +4° C. Serum will be harvested by centrifugation, stored at −20° C. and submitted to pGH assays.

[5] = Experiment 1, 20 μg/kg BID SC × 4 days, mean of 6 to 7
[6] = Experiment 2, 10 μg/kg BID SC × 5 days, mean of 8
[7] = Experiment 2, 20 μg/kg BID SC × 5 days, mean of 8
[8] = Experiment 2, 40 μg/kg BID SC × 5 days, mean of 8
[9] = Experiment 3, 20 μg/kg BID SC × 5 days, mean of 8
[10] = one intravenous injection, 4 μg/kg, FIG. 2

Substance: (Hexanoyl)0 hGRF (1-29) NH2 (YADAIFTNSYRKVLGQLSARKLLQDIMSR; HELM PEPTIDE1{[CCCCCC(=O)[*:2]].Y.A.D.A.I.F.T.N.S.Y.R.K.V.L.G.Q.L.S.A.R.K.L.L.Q.D.I.M.S.R.[am]}$$$$V2.0; SMILES CCCCCC(=O)N[C@@H](Cc1ccc(O)cc1)C(=O)N[C@@H](C)C(=O)N[C@@H](CC(=O)O)C(=O)N[C@@H](C)C(=O)N[C@H](C(=O)N[C@@H](Cc1ccccc1)C(=O)N[C@H](C(=O)N[C@@H](CC(N)=O)C(=O)N[C@@H](CO)C(=O)N[C@@H](Cc1ccc(O)cc1)C(=O)N[C@@H](CCCNC(=N)N)C(=O)N[C@@H](CCCCN)C(=O)N[C@H](C(=O)N[C@@H](CC(C)C)C(=O)NCC(=O)N[C@@H](CCC(N)=O)C(=O)N[C@@H](CC(C)C)C(=O)N[C@@H](CO)C(=O)N[C@@H](C)C(=O)N[C@@H](CCCNC(=N)N)C(=O)N[C@@H](CCCCN)C(=O)N[C@@H](CC(C)C)C(=O)N[C@@H](CC(C)C)C(=O)N[C@@H](CCC(N)=O)C(=O)N[C@@H](CC(=O)O)C(=O)N[C@H](C(=O)N[C@@H](CCSC)C(=O)N[C@@H](CO)C(=O)N[C@@H](CCCNC(=N)N)C(N)=O)[C@@H](C)CC)C(C)C)[C@@H](C)O)[C@@H](C)CC; UniProt P01286 32-60, looked up, fragment) [[hexanoyl^0] hGRF(1-29)NH2]
- D-IGF-I: increase in IGF-I levels from day 1 (pretreatment) to day 6 [1]: significantly increased IGF-I levels
- serum IGF-I, Day 2 [2, 5]: 281 ng/mL
- serum IGF-I, Day 3 [2, 5]: 299 ng/mL
- serum IGF-I, Day 4 [2, 5]: 319 ng/mL
- serum IGF-I, Day 5 [2, 5]: 342 ng/mL
- serum IGF-I, Day 1 (pretreatment) [2, 5]: 248 ng/mL
- increase in IGF-I levels ([2]; Experiment 1, day 4): 29%
- increase in IGF-I levels ([2]; Experiment 1, day 5): 38%
- serum IGF-I, Day 2 [2, 6]: 327 ng/mL
- serum IGF-I, Day 3 [2, 6]: 337 ng/mL
- serum IGF-I, Day 4 [2, 6]: 338 ng/mL
- serum IGF-I, Day 5 [2, 6]: 366 ng/mL
- serum IGF-I, Day 6 [2, 6]: 350 ng/mL
- serum IGF-I, Day 1 (pretreatment) [2, 6]: 303 ng/mL
- serum IGF-I, Day 2 [2, 7]: 341 ng/mL
- serum IGF-I, Day 3 [2, 7]: 368 ng/mL
- serum IGF-I, Day 4 [2, 7]: 362 ng/mL
- serum IGF-I, Day 5 [2, 7]: 362 ng/mL
- serum IGF-I, Day 6 [2, 7]: 368 ng/mL
- serum IGF-I, Day 1 (pretreatment) [2, 7]: 302 ng/mL
- serum IGF-I, Day 2 [2, 8]: 275 ng/mL
- serum IGF-I, Day 3 [2, 8]: 319 ng/mL
- serum IGF-I, Day 4 [2, 8]: 354 ng/mL
- serum IGF-I, Day 5 [2, 8]: 350 ng/mL
- serum IGF-I, Day 6 [2, 8]: 374 ng/mL
- serum IGF-I, Day 1 (pretreatment) [2, 8]: 252 ng/mL
- serum IGF-I, Day 2 [2, 9]: 292 ng/mL
- serum IGF-I, Day 3 [2, 9]: 292 ng/mL
- serum IGF-I, Day 4 [2, 9]: 315 ng/mL
- serum IGF-I, Day 5 [2, 9]: 347 ng/mL
- serum IGF-I, Day 6 [2, 9]: 356 ng/mL
- serum IGF-I, Day 1 (pretreatment) [2, 9]: 272 ng/mL
- increase in IGF-I levels ([2]; Experiment 3, day 5): 28%
- increase in IGF-I levels ([2]; Experiment 3, day 6): 31%

Substance: (Hexenoyl trans-3)0 hGRF (1-29) NH2 (YADAIFTNSYRKVLGQLSARKLLQDIMSR; HELM PEPTIDE1{[CC/C=C/CC(=O)[*:2]].Y.A.D.A.I.F.T.N.S.Y.R.K.V.L.G.Q.L.S.A.R.K.L.L.Q.D.I.M.S.R.[am]}$$$$V2.0; SMILES CC/C=C/CC(=O)N[C@@H](Cc1ccc(O)cc1)C(=O)N[C@@H](C)C(=O)N[C@@H](CC(=O)O)C(=O)N[C@@H](C)C(=O)N[C@H](C(=O)N[C@@H](Cc1ccccc1)C(=O)N[C@H](C(=O)N[C@@H](CC(N)=O)C(=O)N[C@@H](CO)C(=O)N[C@@H](Cc1ccc(O)cc1)C(=O)N[C@@H](CCCNC(=N)N)C(=O)N[C@@H](CCCCN)C(=O)N[C@H](C(=O)N[C@@H](CC(C)C)C(=O)NCC(=O)N[C@@H](CCC(N)=O)C(=O)N[C@@H](CC(C)C)C(=O)N[C@@H](CO)C(=O)N[C@@H](C)C(=O)N[C@@H](CCCNC(=N)N)C(=O)N[C@@H](CCCCN)C(=O)N[C@@H](CC(C)C)C(=O)N[C@@H](CC(C)C)C(=O)N[C@@H](CCC(N)=O)C(=O)N[C@@H](CC(=O)O)C(=O)N[C@H](C(=O)N[C@@H](CCSC)C(=O)N[C@@H](CO)C(=O)N[C@@H](CCCNC(=N)N)C(N)=O)[C@@H](C)CC)C(C)C)[C@@H](C)O)[C@@H](C)CC; UniProt P01286 32-60, looked up, fragment) [hexenoyl trans3-hGRF(1-29)NH2]
- D-IGF-I: increase in IGF-I levels from day 1 (pretreatment) to day 6 [1]: significantly increased IGF-I levels
- effect on GH area under the curve, 0 to 420 minutes following injection ([3]; 5 μg/kg): significant increases of the GH AUC
- effect on GH area under the curve, 0 to 420 minutes following injection ([3]; 20 μg/kg): significant increases of the GH AUC
- duration of GH response following administration ([3]; one subcutaneous injection, 5 μg/kg, FIG. 4): 240 min
- effect on GH area under the curve (0 to 300 minutes following injection) ([4]; 0.25 μg/kg): significant response
- effect on GH area under the curve (0 to 300 minutes following injection) ([4]; 1 μg/kg): significant response
- effect on GH area under the curve (0 to 300 minutes following injection) ([4]; 4 μg/kg): significant response
- GH response in the first 60 minutes [4, 10]: moderate
- duration of GH release following injection [4, 10]: approximately 260 minutes
